Experimental data taken from patent US11767330B2, “Citrate salt, pharmaceutical compositions, and methods of making and using the same” (Foghorn Therapeutics Inc., priority 2021, dated 2023).
Entries after “also recorded” stand apart in the source; their conditions may differ.

Columns and labels:
Format in all cases: physicochemical
[1] = Thermal treatment of solid forms followed by XRPD; conditions: heated, held, cooled down to RT
Protocol: Thermal Treatment of Amorphous Salt. […] The thermal events were measured by TGA/DSC and XRPD was used to study the resulting materials.
To study the effect of the temperature, the compound was subjected to a thermal treatment consisting of heating up the sample from RT up to 100° C. at a 10° C./min, and holding this temperature for 5 min to subsequently cool down to RT. The sample was collected and further analyzed with XRPD.
The sample was subjected to a thermal treatment consisting of heating the sample gradually (10° C./min) up to the first two thermal events shown by TGA/DSC analysis, i.e., 130 and 225° C. In each case, the temperature was held for 5 min, followed by cooling down to RT. The sample was collected and further analyzed with XRPD. […] Overall, the crystalline freebase Pattern FF-B obtained from acetone lost some crystallinity upon drying and exposure to humidity and heat.

[2] = Stability at 40° C./75% RH for 1 week; conditions: for XRPD after storage / chemical purity by HPLC after storage / chiral purity by HPLC after storage: 40° C. and 75% RH
Protocol: The humid environment was generated with saturated sodium chloride in water in a sealed container. After one week, the sample appeared pale-yellow upon inspection.
(§1) The one-week stability at 75% RH was also tested. In this experiment, 12 mg of the dried crystalline freebase from MeOH were weighted in a 4 mL vial and placed in a 20 mL vial set at 40° C. and 75% RH for 1 week. The humid environment was generated with saturated sodium chloride in water in a sealed container.
as §1, with “the” for “the dried”, “was” for “were”

[3] = Amorphous to crystalline studies (long-term slurries, vapor diffusion, slow evaporation); conditions: Am = amorphous
Protocol: Long-Term Slurries. Long-term slurries were carried out for the purpose of producing crystalline forms. […] In this procedure, 30 mg of solid was added to a 2 mL vial containing a 6.3 mm stir bar. Then, 3 vol. of solvent was added, followed by the addition of more solvent in 5 vol. increments until it formed a flowable slurry. After 10 days, the solids were filtered and transferred to an XRPD plate for further analysis on the wet cake. Overall, crystalline patterns were not observed after one week. However, a crystalline solid was observed after stirring in MeOH for about six weeks.
Vapor-Diffusion Crystallization onto Solution and Solids. […] A suitable solvent was added to completely dissolve the solid, while producing a solution of slightly undersaturated concentration. The open vial was placed inside a 20 mL scintillation vial and 3 mL of antisolvent was added to the 20 mL vial to diffuse into the solution. The 20 mL vial was capped, sealed with parafilm, and kept undisturbed at RT.
Vapor diffusion onto solids was also started. The procedure is very similar, with the only difference that the active pharmaceutical ingredient (API) is not dissolved in a solvent; the vapor diffused directly onto the solid. The samples were monitored for visual changes in the solid (color, texture, size, etc.) over 2 months.
Slow Evaporation. […] The samples that were thin slurries were filtered with a […] syringe filter to obtain a clear solution. In some cases, cosolvent was added to obtain a solution. A needle was inserted in the cap septa to allow the solvents to evaporate slowly. The solutions were monitored frequently for precipitation.

[4] = Physical stability by XRPD upon drying at 50° C. under vacuum and exposure to >95% RH
Protocol: (§2) X-Ray Powder Diffraction (XRPD). XRPD was performed using a Rigaku MiniFlex 600 in reflection mode (i.e., Bragg-Brentano geometry). Samples were prepared on Si zero-return wafers.
XRPD analysis was done in three stages. XRPD of the wet cake was done for all samples where solids were observed.
(§3) The solids were then exposed to >95% RH overnight. This humid environment was produced by placing a beaker of saturated potassium sulfate in water in a sealed container at RT. The materials exposed to these conditions were evaluated by XRPD, and their patterns were compared to those produced before.
as §3, with “The pattern FF-B was dried at 50° C. under vacuum for 3 h after filtration for further XRPD analysis. The solids” for “The solids”, “to those of the crystalline freebase along each step.” for “to those produced before.”

[5] = Dynamic vapor sorption (DVS) hygroscopicity
Protocol: Dynamic Vapor Sorption (DVS). DVS was performed using a Q5000SA. The sample (5-15 mg) was loaded into a metallic quartz sample pan, suspended from a microbalance, and exposed to a humidified stream of nitrogen gas. Weight changes were relative to a matching empty reference pan opposite the sample, suspended from the microbalance. One of two methods was used:
Method 1: The sample was held for a minimum of 10 min at each level and only progressed to the next humidity level if there was <0.002% change in weight between measurements (interval: 5 s) or 60 min had elapsed.

[6] = Solid form characterisation (TGA/DSC, KF, XRPD, HPLC chemical and chiral purity); conditions: initial, before stability test
Protocol: Differential Scanning Calorimetry (DSC). DSC was performed using a Mettler Toledo DSC^3+. The sample (1-5 mg) was weighed directly in a 40 μL hermetic aluminum pan with a pinhole and analyzed according to the parameters in Tables 41 and 42.
High Performance Liquid Chromatography (HPLC). HPLC was conducted using an Agilent 1220 Infinity LC or Agilent 1220 Infinity 2 LC equipped with diode array detector (DAD). Flow rate range of the instrument is 0.2-5.0 mL/min, operating pressure range is 0-600 bar, temperature range is 5° C. above ambient to 60° C., and wavelength range is 190-600 nm.
Karl Fischer (KF) Titration. KF titration for water determination was performed using a Mettler Toledo C20S Coulometric KF Titrator equipped with a current generator cell with a diaphragm, and a double-platinum-pin electrode. The range of detection of the instrument is 1 ppm to 5% water. Aquastar™
CombiCoulomat fritless reagent was used in both the anode and cathode compartments. Samples of approximately 0.03-0.10 g were dissolved in the anode compartment and titrated until the solution potential dropped below 100 mV. Hydranal 1 wt. % water standard was used for validation prior to sample analysis.
Simultaneous Thermogravimetric Analysis and Differential Scanning Calorimetry (TGA and DSC). TGA and DSC were performed on the same sample simultaneously using a Mettler Toledo TGA/DSC^3+. Protective and purge gas was nitrogen at a flowrate of 20-30 mL/min and 50-100 mL/min, respectively. The desired amount of sample (5-10 mg) was weighed directly in a hermetic aluminum pan with pinhole and analyzed according to the parameters below:
as §2
XRPD was performed using a Bruker D8 Advance equipped with LYNXEYE detector in reflection mode (i.e., Bragg-Brentano geometry). Samples were prepared on Si zero-return wafers.

COc1cc(-c2cn(C)c(=O)c3cnc(N4CCC4)cc23)cc(OC)c1CN1CCC(CN2CCC3(CC2)CN(c2ccc4c(c2)C(=O)N([C@@H]2CCC(=O)NC2=O)C4)C3)CC1.O=C(O)CC(O)(CC(=O)O)C(=O)O [citrate salt of compound R-D1]
XRPD after thermal treatment [1]: None of these experiments resulted in crystalline solids
XRPD after storage [2]: did not show conversion to a crystalline form
Pattern ([3]; antisolvent vapor diffusion onto solution, RT, solvent Benzyl alcohol, antisolvent Acetone): Am
Pattern ([3]; antisolvent vapor diffusion onto solution, RT, solvent Benzyl alcohol, antisolvent EtOH): Am
Pattern ([3]; antisolvent vapor diffusion onto solution, RT, solvent Benzyl alcohol, antisolvent MeOAc): Am
Pattern ([3]; antisolvent vapor diffusion onto solution, RT, solvent DMAC, antisolvent ACN): Am
Pattern ([3]; antisolvent vapor diffusion onto solution, RT, solvent DMAC, antisolvent Acetone): Am
Pattern ([3]; antisolvent vapor diffusion onto solution, RT, solvent DMAC, antisolvent DCM): Am
Pattern ([3]; antisolvent vapor diffusion onto solution, RT, solvent DMAC, antisolvent EtOAc): Am
Pattern ([3]; antisolvent vapor diffusion onto solution, RT, solvent DMAC, antisolvent IPA): Am
Pattern ([3]; antisolvent vapor diffusion onto solution, RT, solvent DMAC, antisolvent MEK): Am
Pattern ([3]; antisolvent vapor diffusion onto solution, RT, solvent DMSO, antisolvent Acetone): Am
Pattern ([3]; antisolvent vapor diffusion onto solution, RT, solvent DMSO, antisolvent DCM): Am
Pattern ([3]; antisolvent vapor diffusion onto solution, RT, solvent DMSO, antisolvent EtOH): Am
Pattern ([3]; antisolvent vapor diffusion onto solution, RT, solvent DMSO, antisolvent MEK): Am
Pattern ([3]; antisolvent vapor diffusion onto solution, RT, solvent DMSO, antisolvent MeOAc): Am
Pattern ([3]; vapor diffusion onto solids, over 2 months, antisolvent Chloroform): Am
Pattern ([3]; vapor diffusion onto solids, over 2 months, antisolvent Cyclohexane): Am
Pattern ([3]; vapor diffusion onto solids, over 2 months, antisolvent DCM): Am
Pattern ([3]; vapor diffusion onto solids, over 2 months, antisolvent Diethyl ether): Am
Pattern ([3]; vapor diffusion onto solids, over 2 months, antisolvent Hexanes): Am
Pattern ([3]; vapor diffusion onto solids, over 2 months, antisolvent MeOH): Am
Pattern ([3]; vapor diffusion onto solids, over 2 months, antisolvent Methyl cyclohexane): Am
Pattern ([3]; vapor diffusion onto solids, over 2 months, antisolvent MtBE): Am

COc1cc(-c2cn(C)c(=O)c3cnc(N4CCC4)cc23)cc(OC)c1CN1CCC(CN2CCC3(CC2)CN(c2ccc4c(c2)C(=O)N([C@@H]2CCC(=O)NC2=O)C4)C3)CC1 [Pattern FF-A]
XRPD after thermal treatment [1]: loss of some crystallinity
physical stability (XRPD) upon drying at 50° C. under vacuum and exposure to >95% RH [4]: Reduction in the crystallinity
chemical purity by HPLC after storage [2]: 98.27%
chiral purity by HPLC after storage [2]: 94.55%
HPLC chemical purity after DVS analysis [5]: 98.68%
XRPD after DVS analysis [5]: new signal at 26=5.8°
hygroscopicity according to the European Pharmacopeia standards (DVS) [5]: hygroscopic

COc1cc(-c2cn(C)c(=O)c3cnc(N4CCC4)cc23)cc(OC)c1CN1CCC(CN2CCC3(CC2)CN(c2ccc4c(c2)C(=O)N([C@@H]2CCC(=O)NC2=O)C4)C3)CC1 [pattern FF-B]
XRPD after thermal treatment [1]: decreased crystallinity after exposure to 130 °C
physical stability (XRPD) upon drying at 50° C. under vacuum and exposure to >95% RH [4]: crystallinity of the compound decreased after drying the sample under vacuum; also recorded: Some of the crystallinity was regained after exposing the sample to high RH overnight
XRPD pattern Dry ([4]; after drying, Am = amorphous): FF-B
XRPD pattern Humid ([4]; after exposure to humidity, Am = amorphous): FF-B
XRPD pattern Wet ([4]; solid form of compound R-D1, Am = amorphous): FF-B
XRPD after storage [2]: splitting of the signal at 5.3 and 13.7°
chemical purity by HPLC after storage [2]: 98.56%
chiral purity by HPLC after storage [2]: 96.13%
Purity by HPLC (%) After 1 week 75% RH [chiral] ([2]; 40° C./75% RH): [96.13] %
Purity by HPLC (%) After 1 week 75% RH chemical ([2]; 40° C./75% RH): 98.56%
HPLC chemical purity after DVS analysis [5]: 99.06%
XRPD after DVS analysis [5]: slight loss in crystallinity
hygroscopicity according to the European Pharmacopeia standards (DVS) [5]: hygroscopic
Hygroscopicity by DVS (up to 95% RH) ([5]; mass change up to 95% RH): >8.80 wt. %
Purity by HPLC (%) [chiral] [6]: [96.56] %
Purity by HPLC (%) chemical [6]: 98.85%
